{"source": "patent US20250064886A1", "about": "“CARDIOVASCULAR AND CEREBROVASCULAR DRUG AND USE THEREOF” (HANGZHOU ADAMERCK PHARMLABS INC., priority 2021, published 2025)", "key": {"[1]": {"tested_on": "arteriovenous bypass thrombosis in rats", "assay": "Arteriovenous bypass thrombosis in rats (Example 4)", "format": "in vivo, rat", "conditions": "for Wet weight of thrombus / Dry weight of thrombus: in g (unit assumed)", "procedure": "Grouping: Divided into 5 groups, with 10 animals in each group. The model control group was given with solvent, and the test drug compound (1) and the positive control were given intravenously once a day for consecutive 3 d. The modeling started 30 min after the last dose.\nModel preparation: 50 SD male rats were anesthetized with sodium pentobarbital at a dose of 60 mg/kg via ip. The rat was fixed in the supine position, and the skin was incised at the midline of the neck; the fascia and muscle tissues were separated, the left common carotid artery and the right external jugular vein were dissociated, and the arterio-venous (A-V) bypass surgery was performed using the polyethylene tubing with a built-in thread. The arterial clip was used to clamp the proximal end of the carotid artery, and one end of the polyethylene tubing was inserted into the artery, and another end was inserted into the vein, thereby completing the bypass surgery. 30 minutes after the last dose, the arterial clip was opened, and blood flowed from the left common carotid artery to the right external jugular vein through the bypass tubing, and the blood flow formed a bypass circulation, and the thrombus was taken out 15 min later.\nDetection index: the blood flow was open after 15 min, the thread was taken out, the residual liquid was sucked dry, the thread attached with thrombus was weighed and the wet weight of thrombus was calculated; the dry weight of thrombus was weighed and calculated after bake-drying in the oven at 50° C. Thrombosis inhibition rate was calculated. Tails were clipped at the end of the experiment to detect bleeding time."}, "[2]": {"tested_on": "cerebral ischemic injury in rats caused by autologous thrombus and thrombin", "assay": "Ischemic brain injury in rats caused by autologous thrombus and thrombin (Example 6)", "format": "in vivo, rat", "procedure": "The drug was administered once by slow tail vein injection (1 ml per minute) 2 h after modeling, and the decrease in blood flow was monitored after the injection of thrombin, and 120 min after the administration of the drug. Neurobehavioral scoring was performed to determine the neurological function of rats after 24 h. The cerebral infarction rate and cerebral water content of rats were determined using 2,3,5-triphenyltetrazolium chloride (TTC) staining method, and the pathological damage of the brain of rats administered with drug 2 h after cerebral ischemia was observed by hematoxylin-eosin (HE) staining."}}, "data": [{"smiles": "CC(=O)N[C@H](CSCC1OC2OC3C(CSC[C@@H](NC(C)=O)C(=O)[O-])OC(OC4C(CSC[C@@H](NC(C)=O)C(=O)[O-])OC(OC5C(CSC[C@@H](NC(C)=O)C(=O)[O-])OC(OC6C(CSC[C@@H](NC(C)=O)C(=O)[O-])OC(OC7C(CSC[C@@H](NC(C)=O)C(=O)[O-])OC(OC8C(CSC[C@@H](NC(C)=O)C(=O)[O-])OC(OC9C(CSC[C@@H](NC(C)=O)C(=O)[O-])OC(OC1C(O)C2O)C(O)C9O)C(O)C8O)C(O)C7O)C(O)C6O)C(O)C5O)C(O)C4O)C(O)C3O)C(=O)[O-].[Na+].[Na+].[Na+].[Na+].[Na+].[Na+].[Na+].[Na+]", "note": "(stereo partly drawn) [Compound (1)]", "values": [{"measurement": "Dry weight inhibition rate (%)", "setting": "[1]; 10 mg/kg i.v.", "value": 15.9, "unit": "%"}, {"measurement": "Wet weight inhibition rate (%)", "setting": "[1]; 10 mg/kg i.v.", "value": 19.4, "unit": "%"}, {"measurement": "Wet weight of thrombus", "setting": "[1]; 10 mg/kg i.v. once a day 3 d, x ± s, n = 10", "value": "0.0254 ± 0.0042"}, {"measurement": "Dry weight of thrombus", "setting": "[1]; 10 mg/kg i.v. once a day 3 d", "value": "0.0069 ± 0.0014"}, {"measurement": "Dry weight inhibition rate (%)", "setting": "[1]; 20 mg/kg i.v.", "value": 26.8, "unit": "%"}, {"measurement": "Wet weight inhibition rate (%)", "setting": "[1]; 20 mg/kg i.v.", "value": 21.9, "unit": "%"}, {"measurement": "Dry weight of thrombus", "setting": "[1]; 20 mg/kg i.v. once a day 3 d", "value": "0.006 ± 0.0014"}, {"measurement": "Wet weight of thrombus", "setting": "[1]; 20 mg/kg i.v. once a day 3 d", "value": "0.0246 ± 0.0045"}, {"measurement": "Dry weight inhibition rate (%)", "setting": "[1]; 40 mg/kg i.v.", "value": 37.8, "unit": "%"}, {"measurement": "Wet weight inhibition rate (%)", "setting": "[1]; 40 mg/kg i.v.", "value": 34.3, "unit": "%"}, {"measurement": "Dry weight of thrombus", "setting": "[1]; 40 mg/kg i.v. once a day 3 d", "value": "0.0051 ± 0.0011"}, {"measurement": "Wet weight of thrombus", "setting": "[1]; 40 mg/kg i.v. once a day 3 d", "value": "0.0207 ± 0.0041"}, {"measurement": "Cerebral blood flow: Percentage decrease after injection of thrombin (%)", "setting": "[2]; 22.5 mg/kg group, value before administration, mean ± SD, n = 10", "value": "43.67 ± 7.17", "unit": "%"}, {"measurement": "Cerebral infarction rate (%)", "setting": "[2]; 22.5 mg/kg i.v.", "value": "13.91 ± 10.78", "unit": "%"}, {"measurement": "Cerebral water content (%)", "setting": "[2]; 22.5 mg/kg i.v.", "value": "79.93 ± 1.98", "unit": "%"}, {"measurement": "Cerebral blood flow: Percentage decrease two hours after administration (%)", "setting": "[2]; 22.5 mg/kg i.v. once 2 h after modeling", "value": "27.14 ± 6.38", "unit": "%"}, {"measurement": "Pathological damage score", "setting": "[2]; 22.5 mg/kg i.v., HE staining, mean ± SD, n = 10", "value": "1.90 ± 1.10"}, {"measurement": "Behavioral score", "setting": "[2]; 22.5 mg/kg i.v., after 24 h", "value": "1.60 ± 0.70"}]}]}
